biological target: IGF-1R (Homo sapiens (Human), UniProt P08069); assay: Example B-1: IGF-1R Assay (PC3 cells, IGF1 stimulation, AlphaLISA); format: cell-based; conditions: 200 ng/mL IGF1 stimulation, read-out: Biological Activity against IGF-1R IC50
Outline: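 Readout is AlphaLISA signal from lysed PC3 cells, expressed as % inhibition versus vehicle and EC80 controls and banded by IC50. Before lysis, the cells were starved of serum for 2 h, exposed to 3× serially diluted compound for 2 h, and stimulated for 30 min with 200 ng/mL IGF1 (final).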

IGF-1R, sequence (P08069 31-1367): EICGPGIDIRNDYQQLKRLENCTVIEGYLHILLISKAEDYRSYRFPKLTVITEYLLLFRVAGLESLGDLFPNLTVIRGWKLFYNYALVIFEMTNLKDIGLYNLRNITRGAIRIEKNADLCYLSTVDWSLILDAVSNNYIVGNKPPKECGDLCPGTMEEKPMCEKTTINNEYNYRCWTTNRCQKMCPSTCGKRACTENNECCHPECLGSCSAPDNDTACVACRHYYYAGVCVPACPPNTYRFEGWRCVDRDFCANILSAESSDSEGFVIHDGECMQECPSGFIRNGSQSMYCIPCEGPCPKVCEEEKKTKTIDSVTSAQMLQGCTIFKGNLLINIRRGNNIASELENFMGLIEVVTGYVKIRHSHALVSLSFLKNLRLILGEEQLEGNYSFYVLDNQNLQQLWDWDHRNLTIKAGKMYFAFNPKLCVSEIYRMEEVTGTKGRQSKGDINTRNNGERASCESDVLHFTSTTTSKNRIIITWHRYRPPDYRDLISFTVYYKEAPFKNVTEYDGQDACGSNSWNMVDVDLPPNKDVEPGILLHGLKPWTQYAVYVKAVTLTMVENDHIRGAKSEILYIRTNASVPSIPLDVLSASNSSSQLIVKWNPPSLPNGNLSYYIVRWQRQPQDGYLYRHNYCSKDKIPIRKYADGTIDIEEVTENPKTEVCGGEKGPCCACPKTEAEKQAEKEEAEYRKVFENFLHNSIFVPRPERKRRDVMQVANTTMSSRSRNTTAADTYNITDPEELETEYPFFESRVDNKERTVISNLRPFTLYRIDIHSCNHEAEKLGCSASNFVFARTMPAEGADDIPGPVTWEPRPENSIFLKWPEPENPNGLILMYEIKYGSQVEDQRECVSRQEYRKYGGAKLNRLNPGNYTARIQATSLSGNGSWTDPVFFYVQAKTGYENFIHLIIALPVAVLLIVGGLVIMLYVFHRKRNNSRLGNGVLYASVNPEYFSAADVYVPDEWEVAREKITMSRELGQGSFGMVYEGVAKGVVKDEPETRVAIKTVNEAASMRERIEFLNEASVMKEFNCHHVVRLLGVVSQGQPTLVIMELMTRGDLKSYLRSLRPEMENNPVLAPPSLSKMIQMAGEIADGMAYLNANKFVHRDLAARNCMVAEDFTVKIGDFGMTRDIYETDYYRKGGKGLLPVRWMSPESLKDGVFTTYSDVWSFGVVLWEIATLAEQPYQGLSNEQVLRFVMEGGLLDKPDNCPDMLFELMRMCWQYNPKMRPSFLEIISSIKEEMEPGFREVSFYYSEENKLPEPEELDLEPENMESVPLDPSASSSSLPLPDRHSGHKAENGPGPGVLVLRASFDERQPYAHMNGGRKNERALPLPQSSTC

| SMILES | IC50 |
| --- | --- |
| COc1ccc2cc(Nc3ccnc(Nc4ccc(O[C@H]5C[C@H]6COC[C@@H](C5)N6C)cc4)n3)cnc2c1 [Compound 346, 2-(p-{(1R,5S,7r)-9-methyl-3-oxa-9-azabicyclo[3.3.1]non-7-yloxy}phenylamino)-4-(7-methoxy-3-quinolylamino)pyrimidine] | 500 to 2000 nM |
| COc1cc(Nc2nccc(Nc3cnc4ccc(C5CC5)cc4c3)n2)ccc1O[C@H]1C[C@H](N(C)C)C1 [Compound 325, 4-(6-cyclopropyl-3-quinolylamino)-2-{3-methoxy-4-[(1r,3r)-3-(dimethylamino)cyclobutoxy]phenylamino}pyrimidine] | ≤ 500 nM |
| COc1cc(Nc2nccc(Nc3cnc4c(c3)CC3(CC4)OCCO3)n2)ccc1O[C@H]1C[C@@H](N(C)C)C1 [Compound 322, 4-(7′,8′-dihydro-5′H-spiro[1,3-dioxolane-2,6′-quinolin]-3′-ylamino)-2-{3-methoxy-4-[(1s,3s)-3-(dimethylamino)cyclobutoxy]phenylamino}pyrimidine] | ≤ 500 nM |
| CN(C)[C@H]1C[C@H](Oc2ccc(Nc3nccc(Nc4cnc5ccc(Cl)cc5c4)n3)cc2)C1 [Compound 319, 4-(6-chloro-3-quinolylamino)-2-{p-[(1r,3r)-3-(dimethylamino)cyclobutoxy]phenylamino}pyrimidine] | ≤ 500 nM |
| COc1cc(Nc2nccc(Nc3cnc4ccccc4c3)n2)ccc1O[C@H]1CC[C@H](N2CCOCC2)CC1 [Compound 16, 2-{3-methoxy-4-[(1r,4r)-4-morpholinocyclohexyloxy]phenylamino}-4-(3-quinolylamino)pyrimidine] | ≤ 500 nM |
| COc1ccc2cc(Nc3ccnc(Nc4ccc(O[C@H]5C[C@H](N6CCCCC6)C5)cc4)n3)cnc2c1 [Compound 354, 4-(7-methoxy-3-quinolylamino)-2-{p-[(1r,3r)-3-piperidinocyclobutoxy]phenylamino}pyrimidine] | 2000 to 10000 nM |
| Oc1ccc2ncc(Nc3ccnc(Nc4ccc(OCCCN5CCOCC5)cc4)n3)cc2c1 [Compound 414, 3-{2-[p-(3-morpholinopropoxy)phenylamino]-4-pyrimidinylamino}-6-quinolinol] | ≤ 500 nM |
| COc1cc(Nc2nccc(Nc3cnc4c(c3)C3CCC4C3)n2)ccc1O[C@H]1C[C@@H](N(C)C)C1 (stereo partly drawn) [Compound 321, 4-{3-azatricyclo[6.2.1.02,7]undeca-2(7),3,5-trien-5-ylamino}-2-{3-methoxy-4-[(1s,3s)-3-(dimethylamino)cyclobutoxy]phenylamino}pyrimidine] | ≤ 500 nM |
| COc1cc(N2CCC(C)(O)CC2)ncc1Nc1nccc(Nc2cc3cccc(F)c3[nH]c2=O)n1 [Compound 230, 8-fluoro-3-{2-[6-(4-hydroxy-4-methyl-1-piperidyl)-4-methoxy-3-pyridylamino]-4-pyrimidinylamino}-1,2-dihydro-2-quinolinone] | ≤ 500 nM |
| CCc1ccc2cc(Nc3ccnc(Nc4ccc(OCCCN5CCOCC5)cc4)n3)cnc2c1 [Compound 397, 4-(7-ethyl-3-quinolylamino)-2-[p-(3-morpholinopropoxy)phenylamino]pyrimidine] | 2000 to 10000 nM |
| COc1cc(Nc2ncc(F)c(Nc3cc4ccccc4nc3C(N)=O)n2)ccc1O[C@H]1C[C@@H](N(C)C)C1 [Compound 193, 3-(5-fluoro-2-{3-methoxy-4-[(1s,3s)-3-(dimethylamino)cyclobutoxy]phenylamino}-4-pyrimidinylamino)-2-quinolinecarboxamide] | ≤ 500 nM |
| COc1cc(Nc2nccc(Nc3cnc4c(c3)CN(C)CC4)n2)ccc1OCCCN1CCCCC1 [Compound 379, 2-[3-methoxy-4-(3-piperidinopropoxy)phenylamino]-4-(6-methyl-5,6,7,8-tetrahydro-1,6-diaza-3-naphthylamino)pyrimidine] | 2000 to 10000 nM |
| COc1cc(Nc2nccc(Nc3cnc4[nH]cc(C)c4c3)n2)ccc1O[C@H]1C[C@@H](N(C)C)C1 [Compound 281, 2-{3-methoxy-4-[(1s,3s)-3-(dimethylamino)cyclobutoxy]phenylamino}-4-(3-methyl-1H-1,7-diazainden-5-ylamino)pyrimidine] | ≤ 500 nM |
| COc1cc(Nc2nccc(Nc3cc4ccc(Cl)cc4[nH]c3=O)n2)ccc1O[C@H]1C[C@H](N(C)C)C1 [Compound 110, 7-chloro-3-(2-{3-methoxy-4-[(1r,3r)-3-(dimethylamino)cyclobutoxy]phenyl-amino}-4-pyrimidinylamino)-1,2-dihydro-2-quinolinone] | ≤ 500 nM |
| COc1cc(Nc2nccc(Nc3cnc4ccccc4c3)n2)cnc1O[C@H]1C[C@@H](N(C)C)C1 [Compound 132, N2-(6-((1s,3s)-3-(dimethylamino)cyclobutoxy)-5-methoxypyridin-3-yl)-N4-(quinolin-3-yl)pyrimidine-2,4-diamine] | ≤ 500 nM |
| Oc1ccc2cc(Nc3ccnc(Nc4ccc(OCCCN5CCOCC5)cc4)n3)cnc2c1 [Compound 408, 3-{2-[p-(3-morpholinopropoxy)phenylamino]-4-pyrimidinylamino}-7-quinolinol] | ≤ 500 nM |
| c1ccc2ncc(Nc3ccnc(Nc4ccc(O[C@H]5C[C@@H](N6CCOCC6)C5)cc4)n3)cc2c1 [Compound 28, 4-(3-quinolylamino)-2-{p-[(1s,3s)-3-morpholinocyclobutoxy]phenylamino}pyrimidine] | ≤ 500 nM |

| SMILES | IC50 |
| --- | --- |
| COc1cc(Nc2nccc(Nc3cnc4c(c3)CS(=O)(=O)CC4)n2)ccc1OCCCN1CCCCC1 [Compound 391, 3-{2-[3-methoxy-4-(3-piperidinopropoxy)phenylamino]-4-pyrimidinylamino}-5,6,7,8-tetrahydro-6H,6H-6λ^6-thia-1-azanaphthalene-6,6-dione] | 2000 to 10000 nM |
| O=c1[nH]c2ccccc2cc1Nc1ccnc(Nc2ccc(OCCCN3CCOCC3)cc2)n1 [Compound 251, 3-{2-[p-(3-morpholinopropoxy)phenylamino]-4-pyrimidinylamino}-2(1H)-quinolinone] | ≤ 500 nM |
| COc1cc(Nc2nccc(Nc3cnc4cc(Cl)ccc4c3)n2)ccc1O[C@H]1C[C@@H](N(C)C)C1 [Compound 342, 4-(7-chloro-3-quinolylamino)-2-{3-methoxy-4-[(1s,3s)-3-(dimethylamino)cyclobutoxy]phenylamino}pyrimidine] | ≤ 500 nM |
| COc1cc(Nc2nccc(Nc3cnc4ccc(Cl)nc4c3)n2)ccc1O[C@H]1C[C@H](N(C)C)C1 [Compound 285, 4-(6-chloro-1,5-diaza-3-naphthylamino)-2-{3-methoxy-4-[(1r,3r)-3-(dimethylamino)cyclobutoxy]phenylamino}pyrimidine] | ≤ 500 nM |
| COc1cc(Nc2nccc(Nc3cnc4cc(F)ccc4c3)n2)ccc1OCCCN1CCCCC1 [Compound 97, 4-(7-fluoro-3-quinolylamino)-2-[3-methoxy-4-(3-piperidinopropoxy)phenylamino]pyrimidine] | ≤ 500 nM |
| COc1cc(Nc2nccc(Nc3cnc4c(Cl)cccc4c3)n2)ccc1O[C@H]1CC[C@@H](N2CCOCC2)CC1 [Compound 333, 4-(8-chloro-3-quinolylamino)-2-{3-methoxy-4-[(1s,4s)-4-morpholinocyclohexyloxy]phenylamino}pyrimidine] | ≤ 500 nM |
| c1ccc2ncc(Nc3ccnc(Nc4ccc(O[C@H]5C[C@@H](N6CCCCC6)C5)cc4)n3)cc2c1 [Compound 363, 4-(3-quinolylamino)-2-{p-[(1s,3s)-3-piperidinocyclobutoxy]phenylamino}pyrimidine] | ≤ 500 nM |
| COc1cc(Nc2nccc(Nc3cnc4c(OC(F)(F)F)cccc4c3)n2)ccc1O[C@H]1C[C@H](N(C)C)C1 [Compound 7, 2-{3-methoxy-4-[(1r,3r)-3-(dimethylamino)cyclobutoxy]phenylamino}-4-(8-trifluoromethoxy-3-quinolylamino)pyrimidine] | ≤ 500 nM |
| CN(C)[C@H]1C[C@H](Oc2ccc(Nc3nccc(Nc4cnc5ccccc5c4)n3)cc2C(F)(F)F)C1 [Compound 36, 4-(3-quinolylamino)-2-{4-[(1r,3r)-3-(dimethylamino)cyclobutoxy]-3-(trifluoromethyl)phenylamino} pyrimidine] | ≤ 500 nM |
| c1ccc2ncc(Nc3ccnc(Nc4ccc(OCCCN5CCCCC5)c(OCC5CC5)c4)n3)cc2c1 [Compound 425, 2-[3-(cyclopropylmethoxy)-4-(3-piperidinopropoxy)phenylamino]-4-(3-quinolylamino)pyrimidine] | ≤ 500 nM |
| COc1cc(Nc2nccc(Nc3cnc4cc(F)c(F)cc4c3)n2)cnc1N1CC2(COC2)C1 [Compound 50, 4-(6,7-difluoro-3-quinolylamino)-2-{5-methoxy-6-(2-oxa-6-aza-6-spiro[3.3]heptyl)-3-pyridylamino}pyrimidine] | ≤ 500 nM |
| COc1cc(Nc2nccc(Nc3cnc4cc(C(F)(F)F)ccc4c3)n2)ccc1O[C@H]1C[C@H](N(C)C)C1 [Compound 341, 2-{3-methoxy-4-[(1r,3r)-3-(dimethylamino)cyclobutoxy]phenylamino}-4-[7-(trifluoromethyl)-3-quinolylamino]pyrimidine] | 500 to 2000 nM |
| O=S1(=O)CCN([C@H]2C[C@H](Oc3ccc(Nc4nccc(Nc5cnc6c(c5)C5CCC6C5)n4)cc3)C2)CC1 (stereo partly drawn) [Compound 351, 4-[(1r,3r)-3-[p-(4-{3-azatricyclo[6.2.1.02,7]undeca-2(7),3,5-trien-5-ylamino}-2-pyrimidinylamino)phenoxy]cyclobutyl]-1λ^6,4-thiazinane-1,1-dione] | 500 to 2000 nM |
| COc1cc(Nc2nccc(Nc3cnc4[nH]ncc4c3)n2)ccc1O[C@H]1C[C@@H](N(C)C)C1 [Compound 300, 2-{3-methoxy-4-[(1s,3s)-3-(dimethylamino)cyclobutoxy]phenylamino}-4-(1H-1,2,7-triazainden-5-ylamino)pyrimidine] | 500 to 2000 nM |
| COc1cc(Nc2nccc(Nc3cnc4ccccc4c3)n2)ccc1N1CCC(N2CCN(C)CC2)CC1 [Compound 2, 2-{3-methoxy-4-[4-(4-methyl-1-piperazinyl)-1-piperidyl]phenylamino}-4-(3-quinolylamino)pyrimidine] | ≤ 500 nM |
| COc1cc(Nc2nccc(Nc3cnc4ccc(O)cc4c3)n2)ccc1O[C@H]1C[C@H](N(C)C)C1 [Compound 330, 3-(2-{3-methoxy-4-[(1r,3r)-3-(dimethylamino)cyclobutoxy]phenylamino}-4-pyrimidinylamino)-6-quinolinol] | ≤ 500 nM |
